# Measurements taken from ChEMBL document CHEMBL4680174, “Synthesis, biological evaluation and in silico modeling of novel integrase strand transfer inhibitors (INSTIs)” (Eur J Med Chem, 2020).
# Assays:
# [1] = tested on: Human immunodeficiency virus 1; assay: Antiviral activity against HIV1 3B infected in human CEM-SS cells assessed as reduction in cytopathic effect after 4 days; type: functional, organism-based
# [2] = Thermodynamic solubility of compound in water at 2 mg after 24 hrs; type: physicochemical; conditions: read-out: Therm_solubility
# [3] = Selectivity index, ratio of CC50 for human CEM-SS cells to EC50 for Antiviral activity against HIV1 3B infected in human CEM-SS cells; type: toxicity, cell-based; conditions: for selectivity ratio: CEM-SS cells, read-out: Ratio CC50/EC50
# [4] = Cytotoxicity against human CEM-SS cells assessed as reduction in cell viability by XTT assay; type: cell-based
# [5] = Thermodynamic solubility of compound in plON buffer at 2 mg after 24 hrs; type: physicochemical; conditions: read-out: Therm_solubility
# [6] = Tmax in Sprague-Dawley rat at 10 mg/kg, po up to 24 hrs by LC-MS/MS analysis; type: ADME, organism-based; conditions: in vivo
# [7] = Oral bioavailability in Sprague-Dawley rat at 10 mg/kg up to 24 hrs by LC-MS/MS analysis; type: ADME, organism-based; conditions: in vivo
# [8] = Elimination rate constant Sprague-Dawley rat at 10 mg/kg, po up to 24 hrs by LC-MS/MS analysis; type: ADME, organism-based; conditions: in vivo
# [9] = MRTlast in Sprague-Dawley rat at 10 mg/kg, po up to 24 hrs by LC-MS/MS analysis; type: ADME, organism-based; conditions: in vivo
# [10] = Half life in Sprague-Dawley rat at 10 mg/kg, po up to 24 hrs by LC-MS/MS analysis; type: ADME, organism-based; conditions: in vivo
# [11] = Cmax in Sprague-Dawley rat at 2 mg/kg, iv up to 24 hrs by LC-MS/MS analysis; type: ADME, organism-based; design: route intravenous, dose 2 mg/kg, time <=24; conditions: in vivo
# [12] = Cmax in Sprague-Dawley rat at 10 mg/kg, po up to 24 hrs by LC-MS/MS analysis; type: ADME, organism-based; design: route oral, dose 10 mg/kg, time <=24; conditions: in vivo
# [13] = Protein binding in rat plasma at 1 uM after 4 hrs by LC-MS/MS analysis; type: ADME, cell-free; conditions: read-out: PPB (converted)
# [14] = Protein binding in human plasma at 1 uM after 4 hrs by LC-MS/MS analysis; type: ADME, cell-free; conditions: read-out: PPB
# [15] = AUClast in Sprague-Dawley rat at 10 mg/kg, po up to 24 hrs by LC-MS/MS analysis; type: ADME, organism-based; design: route oral, dose 10 mg/kg, time <=24; conditions: in vivo
# [16] = Elimination rate constant Sprague-Dawley rat at 2 mg/kg, iv up to 24 hrs by LC-MS/MS analysis; type: ADME, organism-based; conditions: in vivo
# [17] = MRTlast in Sprague-Dawley rat at 2 mg/kg, iv up to 24 hrs by LC-MS/MS analysis; type: ADME, organism-based; conditions: in vivo
# [18] = AUCinfinity in Sprague-Dawley rat at 10 mg/kg, po up to 24 hrs by LC-MS/MS analysis; type: ADME, organism-based; design: route oral, dose 10 mg/kg, time <=24; conditions: in vivo
# [19] = Stability in rat liver microsomes assessed as parent compound remaining at 1 uM up to 24 hrs by LC-MS/MS analysis; type: ADME, Microsome; conditions: read-out: Stabilty
# [20] = Drug concentration in Sprague-Dawley rat at 10 mg/kg, po after 24 hrs by LC-MS/MS analysis; type: ADME, organism-based; conditions: in vivo, read-out: Drug uptake
# [21] = AUClast in Sprague-Dawley rat at 2 mg/kg, iv up to 24 hrs by LC-MS/MS analysis; type: ADME, organism-based; design: route intravenous, dose 2 mg/kg, time <=24; conditions: in vivo
# [22] = Drug concentration in Sprague-Dawley rat at 2 mg/kg, iv after 8 hrs by LC-MS/MS analysis; type: ADME, organism-based; conditions: in vivo, read-out: Drug uptake
# [23] = AUCinfinity in Sprague-Dawley rat at 2 mg/kg, iv up to 24 hrs by LC-MS/MS analysis; type: ADME, organism-based; design: route intravenous, dose 2 mg/kg, time <=24; conditions: in vivo
# [24] = Drug concentration in Sprague-Dawley rat at 10 mg/kg, po after 8 hrs by LC-MS/MS analysis; type: ADME, organism-based; conditions: in vivo, read-out: Drug uptake
# [25] = Tmax in Sprague-Dawley rat at 2 mg/kg, iv up to 24 hrs by LC-MS/MS analysis; type: ADME, organism-based; conditions: in vivo
# [26] = Drug concentration in Sprague-Dawley rat at 2 mg/kg, iv after 24 hrs by LC-MS/MS analysis; type: ADME, organism-based; conditions: in vivo, read-out: Drug uptake
# [27] = Stability in human liver microsomes assessed as parent compound remaining at 1 uM up to 24 hrs by LC-MS/MS analysis; type: ADME, Microsome; conditions: read-out: Stabilty
# [28] = tested on: Human immunodeficiency virus 1; assay: Antiviral activity against HIV1 3B; type: functional, organism-based; conditions: Human immunodeficiency virus 1, 3B
# [29] = tested on: Human immunodeficiency virus 1; assay: Antiviral activity against HIV1 3B infected in human CEM-SS cells assessed as reduction in cytopathic effect at 2 nM after 4 days; type: functional; design: scale not given: the % may be the effect or the level left; conditions: time 4 day
# [30] = Human immunodeficiency virus 1, 3B, CEM-SS, 96 h
compound,measurement,setting,value
C[C@H]1CO[C@@H]2Cn3cc(C(=O)NCc4nn(C)c(Cl)c4Cl)c(=O)c(O)c3C(=O)N12,EC50,[1]; [30],0.59 nM
same,solubility thermodynamic at 24 h,[2],318 µg/mL
same,selectivity ratio,[3],> 16.9
same,CC50,[4],> 10 nM
same,solubility thermodynamic at 24 h,[5],318 µg/mL
C[C@@H]1CCO[C@H]2Cn3cc(C(=O)NCc4ccc(F)nc4F)c(=O)c(O)c3C(=O)N12,EC50,[1]; [30],5.15 nM
same,solubility thermodynamic at 24 h,[2],57 µg/mL
same,selectivity ratio,[3],> 1.9
same,CC50,[4],> 10 nM
same,solubility thermodynamic at 24 h,[5],80 µg/mL
C[C@H]1CO[C@@H]2Cn3cc(C(=O)NCc4ncc(F)cc4F)c(=O)c(O)c3C(=O)N12,solubility thermodynamic at 24 h,[2],131 µg/mL
same,solubility thermodynamic at 24 h,[5],196 µg/mL
C[C@H]1CO[C@@H]2Cn3cc(C(=O)NCc4cccc5cccnc45)c(=O)c(O)c3C(=O)N12,EC50,[1]; [30],2.17 nM
same,solubility thermodynamic at 24 h,[2],10 µg/mL
same,selectivity ratio,[3],> 4.6
same,CC50,[4],> 10 nM
same,solubility thermodynamic at 24 h,[5],6 µg/mL
C[C@H]1CO[C@@H]2Cn3cc(C(=O)NCc4ccnc5ccccc45)c(=O)c(O)c3C(=O)N12,solubility thermodynamic at 24 h,[2],31 µg/mL
same,solubility thermodynamic at 24 h,[5],8 µg/mL
C[C@H]1CO[C@@H]2Cn3cc(C(=O)NCc4c(F)cncc4F)c(=O)c(O)c3C(=O)N12,EC50,[1]; [30],2.63 nM
same,solubility thermodynamic at 24 h,[2],347 µg/mL
same,selectivity ratio,[3],> 3.8
same,CC50,[4],> 10 nM
same,solubility thermodynamic at 24 h,[5],380 µg/mL
C[C@H]1CO[C@@H]2Cn3cc(C(=O)NCc4cccs4)c(=O)c(O)c3C(=O)N12,EC50,[1]; [30],1.44 nM
same,solubility thermodynamic at 24 h,[2],33 µg/mL
same,selectivity ratio,[3],> 6.9
same,CC50,[4],> 10 nM
same,solubility thermodynamic at 24 h,[5],24 µg/mL
C[C@H]1CO[C@@H]2Cn3cc(C(=O)NCc4ccc(F)nc4F)c(=O)c([O-])c3C(=O)N12.[Na+],EC50,[1]; cem-ss,4.8 nM
same,solubility thermodynamic at 24 h,[2],2680 µg/mL
same,Ratio CC50/EC50,[3],> 2.08
same,solubility thermodynamic at 24 h,[5],1680 µg/mL
C[C@H]1CO[C@@H]2Cn3cc(C(=O)NCc4ccc5nonc5c4)c(=O)c(O)c3C(=O)N12,Tmax,[6],6.67 h
same,F,[7],17.5%
same,k el at 24 h,[8],5.56e-06 s⁻¹
same,MRT last at 24 h,[9],11.3 h
same,half-life,[10],35 h
same,Cmax,[11],37200 ng/mL
same,Cmax,[12],3680 ng/mL
same,"fraction unbound at 4 h, 1 µM",[13],0.9
same,"fraction unbound at 4 h, 1 µM",[14],0.001
same,AUC(0-t) at 24 h,[15],66.9 µg·h/mL
same,Kel,[16],0.03 h⁻¹
same,MRTlast,[17],9.81 h
same,AUC,[18],200.296 µg·h/mL
same,EC50,[1]; [30],0.43 nM
same,"remaining at 24 h, 1 µM",[19],110%
same,concentration at 24 h,[20],4440 ng/mL
same,AUC(0-t) at 24 h,[21],578 µg·h/mL
same,solubility thermodynamic at 24 h,[2],2.85 µg/mL
same,concentration at 8 h,[22],24500 ng/mL
same,AUC,[23],1139.52 µg·h/mL
same,concentration at 8 h,[24],3470 ng/mL
same,CC50,[4],> 10 nM
same,solubility thermodynamic at 24 h,[5],3.2 µg/mL
same,Tmax,[25],1 h
same,concentration at 24 h,[26],16600 ng/mL
same,"remaining at 24 h, 1 µM",[27],105%
C[C@H]1CO[C@@H]2Cn3cc(C(=O)NCc4ccncc4F)c(=O)c(O)c3C(=O)N12,EC50,[1]; [30],> 10 nM
same,solubility thermodynamic at 24 h,[2],78 µg/mL
same,CC50,[4],> 10 nM
same,solubility thermodynamic at 24 h,[5],91 µg/mL
C[C@H]1CO[C@@H]2Cn3cc(C(=O)NCc4cc5c(cc4Br)OCO5)c(=O)c(O)c3C(=O)N12,EC50,[1]; [30],1.93 nM
same,solubility thermodynamic at 24 h,[2],21 µg/mL
same,selectivity ratio,[3],> 5.2
same,CC50,[4],> 10 nM
same,solubility thermodynamic at 24 h,[5],21 µg/mL
Cc1cc2c(cc1CNC(=O)c1cn3c(c(O)c1=O)C(=O)N1[C@@H](C)CO[C@@H]1C3)OCCO2,EC50,[1]; [30],> 10 nM
same,solubility thermodynamic at 24 h,[2],56 µg/mL
same,CC50,[4],> 10 nM
same,solubility thermodynamic at 24 h,[5],70 µg/mL
O=C(NCc1c(F)cc(F)cc1F)c1cn2c(c(O)c1=O)C(=O)N1[C@H]3CC[C@H](C3)O[C@@H]1C2 [BICTEGRAVIR],EC50,[28],1 nM
C[C@H]1CO[C@@H]2Cn3cc(C(=O)NCc4ccc(F)cc4F)c(=O)c(O)c3C(=O)N12 [CABOTEGRAVIR],Activity,[29],>50%
C[C@@H]1CCO[C@H]2Cn3cc(C(=O)NCc4ccc(F)cc4F)c(=O)c(O)c3C(=O)N12 [DOLUTEGRAVIR],EC50,[28],1.1 nM
